In US20150231199A1, “PEPTIDES AND THEIR USES” (priority 2012, published 2015):
Converted amounts (≈) assume the structure as drawn. Marks after values point to notes of the source that are not given here. Positions of bridges follow the written chain, without caps; N, C: chain ends. Residues, ends and D or L forms follow the SMILES beside them. Chains are numbered I, II in the order given. *: point of attachment. Palmitoyl = CCCCCCCCCCCCCCCC(=O)*; Decanoyl = CCCCCCCCCC(=O)*

Tests used:
[1] = tested on: Klebsiella pneumoniae DM4299; assay type: cell-based
Method: (§1) V2-dimer and all lipopeptides (FIG. 1A) used in this study were purchased from Mimotopes. All peptides were prepared by dissolving in sterile water to make 1000 μg/mL stock solutions. Minimum Inhibitory Concentration (MIC) determination was carried out in Mueller Hinton Broth (MHB) using the broth macro-dilution method as described by the Clinical and Laboratory Standards Institute (CLSI). Then, cation-adjusted MHB (CA-MHB) was used to prepare serial two fold dilutions of the compounds in test tubes. The concentration of the inoculums suspension was also adjusted to approximately 5×10^5 Colony Forming Units (CFU)/mL using MHB. Bacteria were incubated with the compounds for 24 hours at 35° C. prior to reading. In this study, Gram-positive strains used were Staphylococcus aureus DM4001 and Methicillin-resistant Staphylococcus aureus (MRSA) DM9808. Gram-negative strains used were Klebsiella pneumoniae DM4299, Pseudomonas aeruginosa ATCC23155 and Escherichia coli ATCC27922.

[2] = tested on: Escherichia coli ATCC27922; assay type: cell-based
Method: as §1

[3] = tested on: S. aureus (DM4001); test: Membrane damage, LIVE/DEAD BacLight assay; assay type: cell-based, Staphylococcus aureus; conditions: FIG. 7
Method: The extent of bacterial membrane damage was assessed using LIVE/DEAD BacLight Bacterial Viability Kit (Molecular Probes, Invitrogen) which utilises both SYTO 9 green-fluorescent nucleic acid stain and the red-fluorescent nucleic acid stain, propidium iodide in their different ability to penetrate healthy bacterial cells. SYTO9 dye could penetrate bacteria with intact and damaged membrane but propidium iodide could only penetrate bacteria with damaged bacteria thereby causing a reduction in the SYTO 9 stain's fluorescence when both dyes are present. Thus, bacteria with intact cell membranes stain fluorescent green whereas bacteria with damaged membranes stain fluorescent red. Briefly, clinical isolate S. aureus (DM4001) was collected at an early exponential growth phase and washed twice with 0.9% saline solution (live culture). A portion of the culture was resuspended in 70% 2-propanol to prepare dead culture with fully permeabilised membrane. […] Using TECAN infinite 200 microplate reader, the wavelength for excitation was fixed at 485 nm to obtain the emission spectrum from 500 nm to 700 nm. The green to red ratio (G/R) was determined using the following formula: [formula] % of membrane damage was quantified using a G/R ratio standard curve generated using bacterial mixture of 0, 10%, 50%, 90% and 100% live culture suspension. […]

[4] = tested on: Pseudomonas aeruginosa; assay type: cell-based
Method: as §1
(§2) Methods used are as described in Example 1 above.

[5] = tested on: Staphylococcus aureus; assay type: cell-based
Method: as §1, §2

[6] = tested on: Methicillin-resistant Staphylococcus aureus (MRSA); assay type: cell-based
Method: as §1, §2

[7] = tested on: red blood cells (RBCs) of New Zealand white rabbits; test: in vitro; assay type: cell-based, rabbit
Method: (§3) Fresh red blood cells (RBCs) of New Zealand white rabbits were used for this experiment. The RBCs obtained were centrifuged at 3000 rpm for 10 min. Supernatant was removed and washed twice with sterile PBS Buffer (20 mM, 100 mM NaCl, pH 7). The RBCs were further diluted to 8% stock solution in PBS. Peptides were dissolved in PBS with desired stock concentrations. When compounds were mixed with RBCs, desired concentration of 4% RBCs was obtained. For C14V2D and C16V2D, they were dissolved in Dimethylformamide ([…]; DMF) with desired stock concentrations. When compounds were mixed with RBCs, desired concentration of 4% RBCs and 0.5% DMF was obtained. DMF concentration of <1% was used as it had negligible hemolytic activity on RBCs. The mixtures were added to 1.5 mL centrifuge tubes and incubated at 37° C. for 1 h. After incubation, the blood was centrifuged at 3000 rpm for 3 min at 4° C. 100 μL of the supernatant was transferred into transparent 96-well plate. The absorbance was measured at 576 nm using a microplate reader (TECAN Infinite 200M Pro). 2% Triton X-100 was used as positive control. PBS was used as negative controls. The amount of hemoglobin released was calculated using the following equation: […]

[8] = Dissolution in PBS for hemolytic assay; assay type: physicochemical
Method: as §3

[9] = in vitro; assay type: cell-based, rabbit; conditions: New Zealand white, rabbit, pH 7
Method: as §3

Compound	MIC [1] [µM]	MIC [2] [µM]	membrane integrity [3]	MIC [4] [µM]	MIC [5] [µM]	MIC [6] [µM]	HC10 [7]	dissolution in PBS [8]	hemolysis at 1 h, 20 mg/mL [9] [%]
CCCCCCCCCCCCCCCC(=O)N[C@@H](CCCNC(=N)N)C(=O)NCC(=O)N[C@@H](CCCNC(=N)N)C(=O)N[C@@H](CCCCN)C(=O)N[C@H](C(=O)N[C@H](C(=O)NCCCC[C@H](NC(=O)[C@@H](NC(=O)[C@@H](NC(=O)[C@H](CCCCN)NC(=O)[C@H](CCCNC(=N)N)NC(=O)CNC(=O)[C@H](CCCNC(=N)N)NC(=O)CCCCCCCCCCCCCCC)C(C)C)C(C)C)C(=O)N[C@@H](CCCCN)C(=O)O)C(C)C)C(C)C [Peptide C16-V2D, (C15H31—CO—NH—RGRKVV)2KK] (I: Palmitoyl-RGRKVVKK-OH / II: Palmitoyl-RGRKVV; amide I:7-II:C; C-terminus assumed)	>36.13	9.03 (≈ 19.4 µg/mL)	reduced membrane integrity	>36.13	36.13 (≈ 77.4 µg/mL)	18.07 (≈ 38.7 µg/mL)	^c114.0 ± 37.9 ug/mL	^cValue in DMF. C16V2D could not dissolve in PBS.	–
CCCCCCCCCC(=O)N[C@@H](CCCNC(=N)N)C(=O)NCC(=O)N[C@@H](CCCNC(=N)N)C(=O)N[C@@H](CCCCN)C(=O)N[C@H](C(=O)N[C@H](C(=O)N[C@@H](CCCNC(=N)N)C(=O)N[C@@H](CCCNC(=N)N)C(=O)NCCCC[C@H](NC(=O)[C@H](CCCNC(=N)N)NC(=O)[C@H](CCCNC(=N)N)NC(=O)[C@@H](NC(=O)[C@@H](NC(=O)[C@H](CCCCN)NC(=O)[C@H](CCCNC(=N)N)NC(=O)CNC(=O)[C@H](CCCNC(=N)N)NC(=O)CCCCCCCCC)C(C)C)C(C)C)C(=O)N[C@@H](CCCCN)C(=O)O)C(C)C)C(C)C [Peptide C10-V2D, (C9H19—CO—NH—RGRKVVRR)2KK] (I: Decanoyl-RGRKVVRRKK-OH / II: Decanoyl-RGRKVVRR; amide I:9-II:C)	2.40 (≈ 6.24 µg/mL)	4.80 (≈ 12.5 µg/mL)	–	2.40 (≈ 6.24 µg/mL)	2.40 (≈ 6.24 µg/mL)	1.20 (≈ 3.12 µg/mL)	>2000^a ug/mL	–	3.3
